This note sets out measurements from ChEMBL document CHEMBL1158149, “(+)-Nortrachelogenin, a new pharmacologically active lignan from Wikstroemia indica” (1979).

SMILES strings stand for the structures. Active and inactive are the calls of the source. No cut-off for these calls is given here.

The species named for test [1] is Mus musculus. Put plainly: Effect on central nervous system in mouse assessed as prolongation of anesthesia. It counts as functional.
The species entered for a further test is Oryctolagus cuniculus. Put plainly: Effect on central nervous system in rabbit assessed as depression. It counts as functional, organism-based.
Test [2] is filed under the species Mus musculus. As to the kind of experiment: Effect on central nervous system in mouse assessed as tranquilizing activity. It counts as functional, organism-based.
The species entered for test [3] is Mus musculus. Put plainly: Effect on central nervous system in mouse assessed as muscle relaxant activity. It is filed as functional, organism-based.

`COc1cc(C[C@@H]2COC(=O)[C@@]2(O)Cc2ccc(O)c(OC)c2)ccc1O` [WIKSTROMOL]: the LD50 in the test listed under Mus musculus [1] came to 65 mg/kg. Moreover, the outcome in the test listed under Oryctolagus cuniculus was Active. In addition, the outcome in the test filed under Mus musculus [2] and in the test listed under Mus musculus [3] was inactive.
